We go through 17 molecules from ChEMBL document CHEMBL2150853 (Eur J Med Chem, 2011).

For orientation: EC50 means the midpoint of the concentration-response curve.

The subject of the first series is N167. Kind of series: Antiprion activity against mouse prion protein 22L infected mouse N167 cells assessed as drug level required for more than 99 percent reduction of PrPSc level by Western blot method. Type of series: cell-based.
Conditions: not given
A general note: Immunoblotting shows a protein as a band on a membrane.
`COc1ccc2nc3cc(Cl)ccc3c(NC3CCN(Cc4ccccc4)CC3)c2c1`: the Activity worked out at 1.5 µM.

Regarding `COc1ccc2nc3cc(Cl)ccc3c(NC3CCN(Cc4ccc(C#N)cc4)CC3)c2c1`, the Activity worked out at 1 µM.

In the case of `COc1ccc2nc3cc(Cl)ccc3c(Nc3ccc(C(=O)N4CCN(C)CC4)cc3)c2c1`, the Activity amounted to 7 µM.

For `CN1CCN(c2ccc(Nc3ccnc4cc(Cl)ccc34)cc2)CC1`, the Activity is 2 µM.

As for `COc1ccc2nc3cc(Cl)ccc3c(NC3CCN(Cc4ccc(Cl)cc4)CC3)c2c1`, the Activity amounted to 3 µM.

Take `COc1ccc(CN2CCC(Nc3c4ccc(Cl)cc4nc4ccc(OC)cc34)CC2)cc1`: the Activity is 2 µM.

Test system in another series: not listed separately
Kind of series: Antiprion activity against mouse prion protein RML infected mouse ScN2a cells assessed as reduction of PrPSc level by Western blot method.
Conditions: not given
Type of series: cell-based.
As for `COc1ccc2nc3cc(Cl)ccc3c(NC3CCN(Cc4ccccc4)CC3)c2c1`, the EC50 stood at 420 nM.

Turning to `COc1ccc2nc3cc(Cl)ccc3c(Nc3ccc(N4CCN(C(C)=O)CC4)cc3)c2c1`, the concentration for a half-maximal effect (EC50) amounted to 35 nM.

In the case of `COc1ccc2nc3cc(Cl)ccc3c(NC3CCN(Cc4ccc(C#N)cc4)CC3)c2c1`, the concentration for a half-maximal effect (EC50) worked out at 550 nM.

For `CCN1CCN(c2ccc(Nc3c4ccc(Cl)cc4nc4ccc(OC)cc34)cc2)CC1`, the EC50 is 80 nM.

In the case of `COc1ccc2nc3cc(Cl)ccc3c(N(C)c3ccccc3)c2c1`, the EC50 stood at 2510 nM.

On to `COc1ccc2nc3cc(Cl)ccc3c(Nc3ccc(C(=O)N4CCN(C)CC4)cc3)c2c1`, for which the EC50 is 1230 nM.

Consider `CN1CCN(c2ccc(Nc3c4c(nc5cc(Cl)ccc35)CCCC4)cc2)CC1`, for which the EC50 was 82 nM.

As to `CN1CCN(c2ccc(Nc3ccnc4cc(Cl)ccc34)cc2)CC1`, the EC50 was determined as 140 nM.

As for `COc1ccc2nc3cc(Cl)ccc3c(NC3CCN(Cc4ccc(Cl)cc4)CC3)c2c1`, the EC50 stood at 280 nM.

As for `COc1ccc(CN2CCC(Nc3c4ccc(Cl)cc4nc4ccc(OC)cc34)CC2)cc1`, the EC50 was found to be 82 nM.

Another series has as its target Major prion protein (Homo sapiens) (UniProt P04156). The experiment in a line: Binding affinity to truncated human PrP 121-231 at 50 uM by surface plasmon resonance method.
Conditions: not given
In turn, `COc1ccc2nc3cc(Cl)ccc3c(NC3CCN(Cc4ccccc4)CC3)c2c1` registered an RUmax of 65.4%.

`CCN(CC)CCNc1c2ccc(Cl)cc2nc2ccc(OC)cc12` returned an RUmax of 153%.

`COc1ccc2nc3cc(Cl)ccc3c(Nc3ccc(N4CCN(C(C)=O)CC4)cc3)c2c1` returned an RUmax of 210%.

In turn, `CCN(CC)CCCNc1c2ccc(Cl)cc2nc2ccc(OC)cc12` yielded an RUmax of 162%.

`CCN(CC)CCCCNc1c2ccc(Cl)cc2nc2ccc(OC)cc12` came in with an RUmax of 178%.

In the case of `COc1ccc2nc3cc(Cl)ccc3c(NC3CCN(Cc4ccc(C#N)cc4)CC3)c2c1`, the RUmax came out at 109%.

`CCN1CCN(c2ccc(Nc3c4ccc(Cl)cc4nc4ccc(OC)cc34)cc2)CC1` had an RUmax of 194%.

On to `COc1ccc2nc3cc(Cl)ccc3c(N)c2c1`, for which the RUmax was 139%.

`COc1ccc2nc3cc(Cl)ccc3c(NCCCN(C)C)c2c1` came in with an RUmax of 164%.

Take `COc1ccc2nc3cc(Cl)ccc3c(N(C)c3ccccc3)c2c1`: the RUmax is 43.2%.

For the molecule `COc1ccc2nc3cc(Cl)ccc3c(Nc3ccc(C(=O)N4CCN(C)CC4)cc3)c2c1`, the RUmax is 232%.

In turn, `CN1CCN(c2ccc(Nc3c4c(nc5cc(Cl)ccc35)CCCC4)cc2)CC1` gave an RUmax of 127%.

Molecule `CN1CCN(c2ccc(Nc3ccnc4cc(Cl)ccc34)cc2)CC1` came in with an RUmax of 165%.

On to `COc1ccc2nc3cc(Cl)ccc3c(NC3CCN(Cc4ccc(Cl)cc4)CC3)c2c1`, for which the RUmax stood at 98.3%.

The molecule `COc1ccc(CN2CCC(Nc3c4ccc(Cl)cc4nc4ccc(OC)cc34)CC2)cc1` displayed an RUmax of 160%.

Test system in another series: not listed separately
Kind of series: Effective permeability of the compound at pH 7.4 at 30 to 50 uM by PAMPA assay. Type of series: ADME. Conditions: read-out: Peff.
For the molecule `CCN(CC)CCNc1c2ccc(Cl)cc2nc2ccc(OC)cc12`, the Papp at up to 50 µM was 21 ×10⁻⁶ cm/s.

`COc1ccc2nc3cc(Cl)ccc3c(Nc3ccc(N4CCN(C(C)=O)CC4)cc3)c2c1`: the Papp at up to 50 µM was determined as 8.79 ×10⁻⁶ cm/s.

Turning to `CCN(CC)CCCNc1c2ccc(Cl)cc2nc2ccc(OC)cc12`, the Papp at up to 50 µM is 22 ×10⁻⁶ cm/s.

Turning to `CCN(CC)CCCCNc1c2ccc(Cl)cc2nc2ccc(OC)cc12`, the Papp at up to 50 µM was 16.4 ×10⁻⁶ cm/s.

On to `COc1ccc2nc3cc(Cl)ccc3c(NC3CCN(Cc4ccc(C#N)cc4)CC3)c2c1`, for which the Papp at up to 50 µM amounted to 9.15 ×10⁻⁶ cm/s.

As to `Cn1c(=O)c2c(ncn2C)n(C)c1=O` [CAFFEINE], the Papp at up to 50 µM amounted to 2.46 ×10⁻⁶ cm/s.

With `CCN1CCN(c2ccc(Nc3c4ccc(Cl)cc4nc4ccc(OC)cc34)cc2)CC1`, the Papp at up to 50 µM was determined as 6.13 ×10⁻⁶ cm/s.

As to `COc1ccc2nc3cc(Cl)ccc3c(N)c2c1`, the Papp at up to 50 µM is 14.8 ×10⁻⁶ cm/s.

Take `COc1ccc2nc3cc(Cl)ccc3c(NCCCN(C)C)c2c1`: the Papp at up to 50 µM was 13.3 ×10⁻⁶ cm/s.

With `C=C[C@H]1C[N@@]2CC[C@H]1C[C@@H]2[C@@H](O)c1ccnc2ccc(OC)cc12` [QUINIDINE], the Papp came out at 11.5 ×10⁻⁶ cm/s.

On to `COc1ccc2nc3cc(Cl)ccc3c(NC3CCN(Cc4ccc(Cl)cc4)CC3)c2c1`, for which the Papp at up to 50 µM was determined as 15.5 ×10⁻⁶ cm/s.

Consider `COc1ccc(CN2CCC(Nc3c4ccc(Cl)cc4nc4ccc(OC)cc34)CC2)cc1`, for which the Papp at up to 50 µM turned out to be 7.54 ×10⁻⁶ cm/s.

Test system in another series: not listed separately
Kind of series: Antiprion activity against human prion protein Fukuoka-1 infected mouse F3 cells assessed as reduction of PrPSc level by Western blot method. Conditions: N2a #58 F3. It counts as cell-based.
Turning to `COc1ccc2nc3cc(Cl)ccc3c(NC3CCN(Cc4ccccc4)CC3)c2c1`, the concentration giving a half-maximal response (EC50) came out at 800 nM.

As to `COc1ccc2nc3cc(Cl)ccc3c(Nc3ccc(C(=O)N4CCN(C)CC4)cc3)c2c1`, the EC50 is 4100 nM.

For the molecule `CN1CCN(c2ccc(Nc3ccnc4cc(Cl)ccc34)cc2)CC1`, the EC50 is 2040 nM.

For a further series, the system named is ScN2a. Kind of series: Antiprion activity against mouse prion protein RML infected mouse ScN2a cells assessed as drug level required for more than 99 percent reduction of PrPSc level by Western blot method.
Conditions: not given
It counts as cell-based.
Regarding `COc1ccc2nc3cc(Cl)ccc3c(NC3CCN(Cc4ccccc4)CC3)c2c1`, the Activity was determined as 1 µM.

For `COc1ccc2nc3cc(Cl)ccc3c(Nc3ccc(N4CCN(C(C)=O)CC4)cc3)c2c1`, the Activity is 0.1 µM.

In the case of `COc1ccc2nc3cc(Cl)ccc3c(NC3CCN(Cc4ccc(C#N)cc4)CC3)c2c1`, the Activity came out at 1 µM.

As to `CCN1CCN(c2ccc(Nc3c4ccc(Cl)cc4nc4ccc(OC)cc34)cc2)CC1`, the Activity turned out to be 1 µM.

`COc1ccc2nc3cc(Cl)ccc3c(N(C)c3ccccc3)c2c1`: the Activity was determined as 5 µM.

Consider `COc1ccc2nc3cc(Cl)ccc3c(Nc3ccc(C(=O)N4CCN(C)CC4)cc3)c2c1`, for which the Activity was determined as 5 µM.

Regarding `CN1CCN(c2ccc(Nc3c4c(nc5cc(Cl)ccc35)CCCC4)cc2)CC1`, the Activity stood at 1 µM.

For `CN1CCN(c2ccc(Nc3ccnc4cc(Cl)ccc34)cc2)CC1`, the Activity came out at 1 µM.

Take `COc1ccc2nc3cc(Cl)ccc3c(NC3CCN(Cc4ccc(Cl)cc4)CC3)c2c1`: the Activity was determined as 1 µM.

For `COc1ccc(CN2CCC(Nc3c4ccc(Cl)cc4nc4ccc(OC)cc34)CC2)cc1`, the Activity turned out to be 1.5 µM.

Test system in a further series: not listed separately
The experiment in a line: Antiprion activity against mouse prion protein 22L infected mouse N167 cells assessed as reduction of PrPSc level by Western blot method. It counts as cell-based.
Conditions: not given
As to `COc1ccc2nc3cc(Cl)ccc3c(NC3CCN(Cc4ccccc4)CC3)c2c1`, the EC50 amounted to 490 nM.

In the case of `COc1ccc2nc3cc(Cl)ccc3c(NC3CCN(Cc4ccc(C#N)cc4)CC3)c2c1`, the half-maximal effective concentration (EC50) came out at 140 nM.

As for `CCN1CCN(c2ccc(Nc3c4ccc(Cl)cc4nc4ccc(OC)cc34)cc2)CC1`, the EC50 amounted to 960 nM.

For the molecule `COc1ccc2nc3cc(Cl)ccc3c(Nc3ccc(C(=O)N4CCN(C)CC4)cc3)c2c1`, the EC50 was 4200 nM.

For `CN1CCN(c2ccc(Nc3ccnc4cc(Cl)ccc34)cc2)CC1`, the EC50 was determined as 530 nM.

Regarding `COc1ccc2nc3cc(Cl)ccc3c(NC3CCN(Cc4ccc(Cl)cc4)CC3)c2c1`, the EC50 came out at 340 nM.

As to `COc1ccc(CN2CCC(Nc3c4ccc(Cl)cc4nc4ccc(OC)cc34)CC2)cc1`, the concentration for a half-maximal effect (EC50) was 520 nM.

Test system in another series: not listed separately
The experiment in a line: Cytotoxicity against mouse N2A cells assessed as maximal tolerant concentration. Type of series: cell-based. Conditions: read-out: MTD.
For the molecule `COc1ccc2nc3cc(Cl)ccc3c(NC3CCN(Cc4ccccc4)CC3)c2c1`, the MNTC was 2 µM.

As for `COc1ccc2nc3cc(Cl)ccc3c(Nc3ccc(N4CCN(C(C)=O)CC4)cc3)c2c1`, the MNTC was 5 µM.

As for `COc1ccc2nc3cc(Cl)ccc3c(NC3CCN(Cc4ccc(C#N)cc4)CC3)c2c1`, the MNTC came out at 5 µM.

For the molecule `CCN1CCN(c2ccc(Nc3c4ccc(Cl)cc4nc4ccc(OC)cc34)cc2)CC1`, the MNTC was determined as 3 µM.

For the molecule `COc1ccc2nc3cc(Cl)ccc3c(N(C)c3ccccc3)c2c1`, the MNTC worked out at 8 µM.

Take `COc1ccc2nc3cc(Cl)ccc3c(Nc3ccc(C(=O)N4CCN(C)CC4)cc3)c2c1`: the MNTC is 12 µM.

Take `CN1CCN(c2ccc(Nc3c4c(nc5cc(Cl)ccc35)CCCC4)cc2)CC1`: the MNTC is over 10 µM.

`CN1CCN(c2ccc(Nc3ccnc4cc(Cl)ccc34)cc2)CC1`: the MNTC worked out at 10 µM.

Turning to `COc1ccc2nc3cc(Cl)ccc3c(NC3CCN(Cc4ccc(Cl)cc4)CC3)c2c1`, the MNTC is 12 µM.

As for `COc1ccc(CN2CCC(Nc3c4ccc(Cl)cc4nc4ccc(OC)cc34)CC2)cc1`, the MNTC was determined as 10 µM.
